The subject of experiment [1] is SUDHL5. In words: Induction of caspase-3/7 activity (Caspase-Glo 3/7), SUDHL5. Format: cell-based. The settings on record: Homo sapiens, SU-DHL-5, 3 h, caspase-3/7 induction, SUDHL5 cells, 3 h treatment; median. In short, it runs like this: (§1)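 DLBCL cells treated with compounds for 3 h at 37 °C, then caspase-3/7 activity read by Caspase-Glo 3/7 luminescence. Medium-only background subtracted; EC50 fitted with C0 fixed at 1 and top set to the reference compound's maximal induction.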

Experiment [2] has as its system SUDHL10. The experiment in a line: Induction of caspase-3/7 activity (Caspase-Glo 3/7), SUDHL10. Type of experiment: cell-based. Particulars: Homo sapiens, SU-DHL10, 3 h, caspase-3/7 induction, SUDHL10 cells, 3 h treatment; median. In short, it runs like this:
as §1

Another experiment has as its target MCL-1 (Homo sapiens, UniProt Q07820). The experiment in a line: Protein-protein interaction assay MCL-1/Noxa BH3 peptide (MCL-1 assay), TR-FRET. Type of experiment: binding. Particulars: MBP-MCL-1 / Noxa BH3-derived peptide, median. In short, it runs like this: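 TR-FRET, 665/622 nm emission ratio (excitation 330–350 nm), measured MCL-1/Noxa complex formation. 1 nM MBP-MCL-1, 50 mM Tris/HCl pH 7, 0.1% BGG, 2 mM DTT. Incubation 1 h at 22 °C, then overnight at 4 °C. IC50 by 4-parameter regression, normalized to DMSO (0%) and no-MCL-1 (100%) controls.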
A general note: Time-resolved FRET reads energy transfer from a long-lived donor to a nearby acceptor.

Experiment [3] relates to SUDHL10. The experiment in a line: Induction of cytotoxicity (CellTiter-Glo, 5 h), SUDHL10. Particulars: Homo sapiens, SU-DHL10, 5 h, read-out: Cytotox SUDHL10 [M] (median), SUDHL10 cells, cytotoxicity induction, CellTiter-Glo, 5 h incubation, median.
The test system of experiment [4] is SUDHL5. The experiment in a line: Anti-proliferative effect (CellTiter-Glo, 72 h), SUDHL5. Format: cell-based. The settings on record: Homo sapiens, SU-DHL-5, 72 h, SUDHL5 cells, antiproliferation, 72 h incubation, median, read-out: Antiproli SUDHL5 [M] (median). A digest of the protocol: (§2)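 A time zero plate, read with CellTiter-Glo shortly after seeding, served as baseline; compound-treated plates were incubated 72 h at 37 °C and then read identically by luminescence.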
(ATP-based viability assays read luminescence as a measure of living cells.)

For another experiment, the system named is A2780. The experiment in a line: Anti-proliferative effect (CellTiter-Glo, 72 h), A2780. Particulars: A2780 cells, median, read-out: IC50 antiproliferation assay A2780 [M] (median). Format: cell-based. In short, it runs like this:
as §2

The subject of experiment [5] is SUDHL10. In words: Anti-proliferative effect (CellTiter-Glo, 72 h), SUDHL10. Particulars: Homo sapiens, SU-DHL10, 72 h, SUDHL10 cells, antiproliferation, 72 h incubation, median, read-out: Antiproli SUDHL10 [M] (median). Format: cell-based. The procedure: Assessment of the Anti-Proliferative Effect of Compounds in Different Cell Lines
The impact of compounds on the proliferation of different cell lines was assessed using the CellTiter-Glo® Luminescent Cell Viability reagent from Promega (G7573). Of note, SUDHL10 and SUDHL5 (DLBCL), NCI-H929 (Multiple Myeloma), A2780 (ovarian carcinoma) as well as MV-4-11(AML) cells are sensitive to MCL-1 inhibition.
In parallel, cells were plated in a reference (day 0) plate for time zero determination.
Rim wells were excluded. The cells were incubated for 72 h hours in a humidified incubator at 37° C. The day 0 plate was measured by adding 30 μl/well of CTG solution (CellTiter-Glo® Luminescent Cell Viability reagent, Promega G7573) to time zero wells in the reference plate followed by a 10 minutes incubation and luminescence reading at 0.1 ms, using the PHERAstar FS microplate reader (BMG Labtech).
After 72 h incubation, the treated plates were measured in the same way as the day 0 plate mentioned above.

Experiment [6] concerns SUDHL5. In words: Induction of cytotoxicity (CellTiter-Glo, 5 h), SUDHL5. The settings on record: Homo sapiens, SU-DHL-5, 5 h, read-out: Cytotox SUDHL5 [M] (median), SUDHL5 cells, cytotoxicity induction, CellTiter-Glo, 5 h incubation, median.

Read-outs that look alike come from different tables or passages of the source.

Chain of MCL-1 (Q07820 whole entry): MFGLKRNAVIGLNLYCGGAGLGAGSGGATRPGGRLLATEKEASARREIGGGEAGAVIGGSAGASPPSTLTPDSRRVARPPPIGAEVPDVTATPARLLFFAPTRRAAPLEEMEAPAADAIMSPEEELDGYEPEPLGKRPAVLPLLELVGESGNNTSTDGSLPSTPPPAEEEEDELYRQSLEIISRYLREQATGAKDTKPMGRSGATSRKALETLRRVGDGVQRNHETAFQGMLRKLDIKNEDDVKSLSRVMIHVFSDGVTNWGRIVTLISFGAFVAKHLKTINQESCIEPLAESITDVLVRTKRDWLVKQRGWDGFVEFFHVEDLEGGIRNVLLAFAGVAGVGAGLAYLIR

One may read the EC50 as the concentration at which the effect is half-maximal. Low values mean higher potency in that assay, high ones lower potency in that assay. On to `Cc1nn(CC(F)(F)F)c2c1-c1cccc3c(CCCOc4cccc5ccccc45)c(C(=O)O)n(c13)C/C=C\COC2` (racemic) [Example 098, (rac)-(11Z)-3-methyl-7-[3-(naphthalen-1-yloxy)propyl]-12-(2,2,2-trifluoroethyl)-1,10,13,15-tetrahydropyrazolo[4′,3′:9,10][1,6]oxazacycloundecino[8,7,6-hi]indole-8-carboxylic Acid], for which the EC50 in the experiment on SUDHL5 [1] and in the experiment with SUDHL10 [2] was > 33 µM each time. For the same molecule, the IC50 against MCL-1 was 0.0827 µM; in the experiment with SUDHL10 [3] it was > 3.3e-05 M; in the experiment on SUDHL5 [4], 2.74e-05 M; in the experiment with A2780 (Homo sapiens, A2780, 72 h), 2.09e-05 M; in the experiment with SUDHL10 [5], 1.15e-05 M; with SUDHL5 [6] it was 2.94e-05 M.
As for `COCc1c2c(nn1C)COCCCCn1c(C(=O)O)c(CCCOc3cccc4ccccc34)c3cccc-2c31` (racemic) [Example 099, (rac)-3-(methoxymethyl)-2-methyl-7-[3-(naphthalen-1-yloxy)propyl]-2,10,11,12,13,15-hexahydropyrazolo[4′,3′:9,10][1,6]oxazacycloundecino[8,7,6-hi]indole-8-carboxylic Acid], the EC50 in the experiment with SUDHL5 [1] was found to be 5.2 µM; in the experiment on SUDHL10 [2], 12.8 µM. Further, the IC50 amounted to 0.0043 µM against MCL-1; 1.75e-05 M in the experiment with SUDHL10 [3]; 8.47e-06 M with SUDHL5 [4]; 2.11e-05 M in the experiment with A2780 (Homo sapiens, A2780, 72 h); 1.08e-05 M with SUDHL10 [5]; 3.86e-06 M in the experiment on SUDHL5 [6].
Consider `COCc1c2c(nn1C)COCCCCn1c(C(=O)O)c(CCCOc3cccc4c3CCCC4)c3cccc-2c31` (racemic) [Example 105, (rac)-3-(methoxymethyl)-2-methyl-7-[3-(5,6,7,8-tetrahydronaphthalen-1-yloxy)propyl]-2,10,11,12,13,15-hexahydropyrazolo[4′,3′:9,10][1,6]oxazacycloundecino[8,7,6-hi]indole-8-carboxylic Acid], for which the figures for the EC50 in the experiment with SUDHL5 [1] and in the experiment on SUDHL10 [2] were 8.27 µM and 23.9 µM, respectively. For the same molecule, the IC50 was found to be 0.00268 µM on MCL-1; 1.92e-05 M in the experiment on SUDHL10 [3]; 1.01e-05 M in the experiment with SUDHL5 [4]; 1.49e-05 M in the experiment on A2780 (Homo sapiens, A2780, 72 h); 9.89e-06 M in the experiment with SUDHL10 [5]; 7.19e-06 M in the experiment with SUDHL5 [6].
For the molecule `CCNCc1nn(C)c2c1-c1cccc3c(CCCOc4cccc5ccccc45)c(C(=O)O)n(c13)CCCCOC2` (racemic) [Example 156, (rac)-3-[(ethylamino)methyl]-1-methyl-7-[3-(naphthalen-1-yloxy)propyl]-1,10,11,12,13,15-hexahydropyrazolo[4′,3′:9,10][1,6]oxazacycloundecino[8,7,6-hi]indole-8-carboxylic Acid], the EC50 in the experiment on SUDHL5 [1] and in the experiment with SUDHL10 [2] was > 33 µM in each case. Besides, the IC50 against MCL-1 was 0.152 µM; in the experiment on SUDHL10 [3], > 3.3e-05 M; with SUDHL5 [4], > 3.3e-05 M; in the experiment with A2780 (Homo sapiens, A2780, 72 h) it was > 3.3e-05 M; with SUDHL10 [5] it was 2.23e-05 M; in the experiment with SUDHL5 [6], > 3.3e-05 M.
On to `CN1CCCn2c(C(=O)O)c(CCCOc3cccc4ccccc34)c3cccc(c32)-c2c(CN3CCOCC3=O)nn(C)c2C1` (racemic) [Example 157, (rac)-7,9-dimethyl-1-[3-(naphthalen-1-yloxy)propyl]-11-[(3-oxomorpholin-4-yl)methyl]-4,5,6,7,8,9-hexahydropyrazolo[3′,4′:7,8][1,5]diazecino[9,10,1-hi]indole-2-carboxylic Acid], for which the EC50 in the experiment with SUDHL5 [1] and in the experiment with SUDHL10 [2] was > 33 µM in each case. In addition, the IC50 is 0.289 µM against MCL-1; > 3.3e-05 M with SUDHL10 [3]; > 3.3e-05 M with SUDHL5 [4]; > 3.3e-05 M with A2780 (Homo sapiens, A2780, 72 h); > 3.3e-05 M in the experiment with SUDHL10 [5]; > 3.3e-05 M with SUDHL5 [6].
As to `Cc1nn(CC(F)(F)F)c2c1-c1cccc3c(CCCOc4cccc5c4CCCC5)c(C(=O)O)n(c13)CCCCOC2` (racemic) [Example 161, (rac)-3-methyl-7-[3-(5,6,7,8-tetrahydronaphthalen-1-yloxy)propyl]1-(2,2,2-trifluoroethyl)-1,10,11,12,13,15-hexahydropyrazolo[4′,3′:9,10][1,6]oxazacycloundecino[8,7,6-hi]indole-8-carboxylic Acid], the EC50 in the experiment on SUDHL5 [1] was 15 µM; with SUDHL10 [2], > 33 µM. Besides, the IC50 is 0.0521 µM at MCL-1; > 3.3e-05 M with SUDHL10 [3]; 1.36e-05 M in the experiment with SUDHL5 [4]; 1.62e-05 M in the experiment with A2780 (Homo sapiens, A2780, 72 h); 1.26e-05 M in the experiment with SUDHL10 [5]; 1.06e-05 M in the experiment with SUDHL5 [6].
Turning to `COCCn1nc(C2CC2)c2c1COCCCCn1c(C(=O)O)c(CCCOc3cccc4c3CCCC4)c3cccc-2c31` (racemic) [Example 164, (rac)-3-Cyclopropyl-1-(2-methoxyethyl)-7-[3-(5,6,7,8-tetrahydronaphthalen-1-yloxy)propyl]-1,10,11,12,13,15-hexahydropyrazolo[4′,3′:9,10][1,6]oxazacycloundecino[8,7,6-hi]indole-8-carboxylic Acid], the EC50 with SUDHL5 [1] is 12 µM; in the experiment with SUDHL10 [2], > 33 µM. Further, the IC50 at MCL-1 was found to be 0.0107 µM; with SUDHL10 [3] it was 3.07e-05 M; in the experiment with SUDHL5 [4], 1.6e-05 M; in the experiment with A2780 (Homo sapiens, A2780, 72 h) it was 2.03e-05 M; in the experiment with SUDHL10 [5] it was 1.69e-05 M; in the experiment with SUDHL5 [6], 9.23e-06 M.
In the case of `Cn1nc(CN2CC(F)(F)C2)c2c1COCCCCn1c(C(=O)O)c(CCCOc3cccc4ccccc34)c3cccc-2c31` (racemic) [Example 180, (rac)-3-[(3,3-difluoroazetidin-1-yl)methyl]-1-methyl-7-[3-(naphthalen-1-yloxy)propyl]-1,10,11,12,13,15-hexahydropyrazolo[4′,3′:9,10][1,6]oxazacycloundecino[8,7,6-hi]indole-8-carboxylic Acid], the EC50 was found to be 14.5 µM in the experiment on SUDHL5 [1] and 28.2 µM in the experiment on SUDHL10 [2]. Besides, the IC50 is 0.0177 µM against MCL-1; 3.11e-05 M in the experiment with SUDHL10 [3]; 7.77e-06 M in the experiment on SUDHL5 [4]; 2.36e-05 M in the experiment on A2780 (Homo sapiens, A2780, 72 h); 8.97e-06 M with SUDHL10 [5]; 1.1e-05 M with SUDHL5 [6].
On to `COCc1nn(C)c2c1-c1cccc3c(CCCOc4cccc5ccccc45)c(C(=O)O)n(c13)CCCCN(C)C2` (racemic) [Example 183, (rac)-3-(methoxymethyl)-1,14-dimethyl-7-[3-(naphthalen-1-yloxy)propyl]-10,11,12,13,14,15-hexahydro-1H-pyrazolo[3′,4′:8,9][1,6]diazacycloundecino[10,11,1-hi]indole-8-carboxylic Acid], for which the EC50 was found to be 1.46 µM in the experiment on SUDHL5 [1] and 5.89 µM in the experiment on SUDHL10 [2]. Further, the IC50 on MCL-1 was 0.00225 µM; in the experiment with SUDHL10 [3], 5.55e-06 M; with SUDHL5 [4], 2.43e-06 M; in the experiment with A2780, 2.39e-05 M; in the experiment on A2780 (Homo sapiens, A2780, 72 h), > 3.3e-05 M; with SUDHL10 [5], 4.14e-06 M. In addition, the IC50 in the experiment on SUDHL5 [6] is 1.88e-06 M.
`Cn1nc2c(c1C(F)(F)F)-c1cccc3c(CCCOc4cccc5ccccc45)c(C(=O)O)n(c13)CCCCOC2` (racemic) [Example 186, (rac)-2-methyl-7-[3-(naphthalen-1-yloxy)propyl]-3-(trifluoromethyl)-2,10,11,12,13,15-hexahydropyrazolo[4′3′:9,10][1,6]oxazacycloundecino[8,7,6,6-hi]indole-8-carboxylic Acid]: the EC50 with SUDHL5 [1] stood at 9.85 µM; in the experiment on SUDHL10 [2], 18.6 µM. Moreover, the IC50 against MCL-1 is 0.0157 µM; in the experiment with SUDHL10 [3], 2.61e-05 M; with SUDHL5 [4], 8.69e-06 M; in the experiment with A2780, 2.28e-05 M; in the experiment with A2780 (Homo sapiens, A2780, 72 h) it was > 3.3e-05 M; in the experiment with SUDHL10 [5], 1.4e-05 M. The IC50 with SUDHL5 [6] is 1.14e-05 M.

The values are drawn from patent US10981932B2, “Macrocyclic indole derivatives” (Bayer Aktiengesellschaft, priority 2016, dated 2021).
